This note sets out measurements from paper PMC6273621, “Synthesis and the Biological Activity of Phosphonylated 1,2,3-Triazolenaphthalimide Conjugates” (Molecules, 2016).

Where two headings read alike, the source gives them in different places.

The nature of series [1]: Cytotoxicity, cell growth (CC50) in HEL cells. It counts as cell-based. To be noted: human, concentration reducing cell growth by 50%.
Another series relates to TK− VZV strain. The experiment in a line: microbe, parasite or virus in culture. It counts as cell-based, varicella-zoster virus (VZV) strain 07−1. As to conditions: concentration reducing virus plaque formation by 50%.
Another series concerns TK+ VZV strain. Nature of the series: microbe, parasite or virus in culture. As to conditions: concentration reducing virus plaque formation by 50%. In kind it is cell-based, varicella-zoster virus (VZV) strain Oka.
The next series concerns HEL cells. The experiment in a line: Cytotoxicity, cell morphology (MCC) in HEL cells. As to conditions: minimum cytotoxic concentration causing microscopically detectable alteration of cell morphology. It counts as cell-based, human. The source says: The cytotoxicity of the tested compounds toward the uninfected host cells was defined as the minimum cytotoxic concentration (MCC) that causes a microscopically detectable alteration of normal cell morphology.

The test system of series [2] is human T-lymphocyte (CEM) cells. Nature of the series: Cytostatic activity, CEM cell proliferation. As to conditions: CCRF-CEM, 72 h, read-out: IC50 CEM. It counts as cell-based. On the procedure:
(§1) All assays were performed in 96-well microtiter plates. To each well were added (5–7.5) × 10^4 tumor cells and a given amount of the test compound. The cells were allowed to proliferate for 48 h (murine leukemia L1210 cells) or 72 h (human lymphocytic CEM and human cervix carcinoma HeLa cells) at 37 °C in a humidified CO2-controlled atmosphere. At the end of the incubation period, the cells were counted in a Coulter counter.

The test system of series [3] is L1210, CEM, HeLa and HMEC-1 cells. Nature of the series: Cytostatic activity, overall statement on the tested cell lines. In kind it is cell-based. To be noted: naphthalimides devoid of the 1,2,3-triazole unit. On the procedure:
as §1

Series [4] concerns human dermal microvascular endothelial HMEC-1 cells. Nature of the series: Cytostatic activity, HMEC-1 cell proliferation. In kind it is cell-based.
For series [5], the system named is murine leukemia (L1210) cells. The experiment in a line: Cytostatic activity, L1210 cell proliferation. To be noted: Mus musculus, read-out: IC50 L1210. It counts as cell-based. The protocol: as §1
Series [6] relates to human cervix carcinoma cells (HeLa). Nature of the series: Cytostatic activity, HeLa cell proliferation. In kind it is cell-based. To be noted: 72 h, read-out: IC50 HeLa. The protocol: as §1
[7] abbreviates: Human alphaherpesvirus 3, HEL, read-out: Antiviral Activity EC50, TK− VZV Strain, HEL cell cultures.
Where [8] appears, read: Human alphaherpesvirus 3, HEL, read-out: Antiviral Activity EC50, TK+ VZV Strain, HEL cell cultures.
Where [9] appears, read: HMEC-1, cell proliferation, read-out: IC50 HMEC-1.
Setting [10] is: L1210, cell proliferation, 48 h.

One may read the CC50 as the concentration that lowers cell viability or growth by half. Low values mean harm at low concentration, high ones better tolerance by the cells. As usually defined, the EC50 is the concentration giving half of the maximal effect. As usually defined, the IC50 is the point on the concentration scale where inhibition reaches its midpoint. One may read the melting point as the temperature, or range, at which the solid turns liquid.

In series [1] (HEL cells (uninfected)), `Nc1nc2c(ncn2COCCO)c(=O)[nH]1` [Acyclovir] came in with a CC50 of over 440 µM.

For the compound `O=c1[nH]c(=O)n([C@H]2C[C@H](O)[C@@H](CO)O2)cc1/C=C/Br` [Brivudin, reference compound], the EC50 in the series on TK− VZV strain (setting [7]) is 24.9 µM; in the series on TK− VZV strain (read-out: Antiviral Activity EC50, TK− VZV Strain, HEL cell cultures) it was 13.7 µM; with TK+ VZV strain (setting [8]), 0.013 µM; in the series with TK+ VZV strain (read-out: Antiviral Activity EC50, TK+ VZV Strain, HEL cell cultures) it was 0.0078 µM. Also, in series [1], the CC50 is over 300 µM. The “Cytotoxicity, Cell Morphology (MCC)” value with HEL cells is over 300 μM.

`C#CCN1C(=O)c2cccc3c(Br)ccc(c23)C1=O` [Compound 8]: the IC50 in series [2] (cell proliferation) is at least 250 µM; in series [4] (setting [9]), over 250 µM; in [5] (setting [10]) it was at least 250 µM; in series [6] (cell proliferation), over 250 µM. The “Cytostatic activity (in words)” value in series [3] is “inactive”.

Consider `C#CCN1C(=O)c2cccc3cc([N+](=O)[O-])cc(c23)C1=O` [Compound 11, 5-Nitro-2-(prop-2-yn-1-yl)-1H-benzo[de]isoquinoline-1,3(2H)-dione], for which the melting point lay within 213 to 214 °C. The EC50 with TK− VZV strain (setting [7]) was over 100 µM. Further, the EC50 in the series on TK+ VZV strain (setting [8]) was 48.9 µM. In addition, in series [2] (cell proliferation), the IC50 was 229 ± 18 µM. Also, the “Cytostatic activity (in words)” value in [3] was “inactive”. Besides, in the series on HEL cells, the “Cytotoxicity, Cell Morphology (MCC)” value was determined as 100 μM. Moreover, in [4] (setting [9]), the IC50 is over 250 µM. Also, the IC50 in series [5] (setting [10]) turned out to be 177 ± 16 µM. In series [6] (cell proliferation), the IC50 was determined as 109 ± 5 µM.

Consider `CCOP(=O)(OCC)C(O)Cn1cc(CN2C(=O)c3cccc4cc([N+](=O)[O-])cc(c34)C2=O)nn1` (stereo not drawn) [Compound 16e, Diethyl 2-{4-[(5-Nitro-1,3-dioxo-1H-benzo[de]isoquinolin-2(3H)-yl)methyl]-1H-1,2,3-triazol-1-yl}-1-hydroxyethylphosphonate], for which the melting point is 212 to 213 °C. For the same compound, the EC50 in the series on TK− VZV strain (setting [7]) is over 100 µM. In addition, in the series on TK+ VZV strain (setting [8]), the concentration giving a half-maximal response (EC50) came out at 83.6 µM. Also, the IC50 in [2] turned out to be 127 ± 14 µM. The “Cytotoxicity, Cell Morphology (MCC)” value in the series on HEL cells is over 100 μM. Further, the IC50 in series [4] (HMEC-1, read-out: IC50 HMEC-1) was over 250 µM. Also, in series [5] (L1210, 48 h), the IC50 is 111 ± 39 µM. In series [6], the concentration for half-maximal inhibition (IC50) is 132 ± 2 µM.

Regarding `CCOP(=O)(CC(O)Cn1cc(CN2C(=O)c3cccc4cc([N+](=O)[O-])cc(c34)C2=O)nn1)OCC` (stereo not drawn) [Compound 16f, Diethyl 3-{4-[(5-Nitro-1,3-dioxo-1H-benzo[de]isoquinolin-2(3H)-yl)methyl]-1H-1,2,3-triazol-1-yl}-2-hydroxypropylphosphonate], the melting point fell in the range of 176 to 177 °C. Besides, the EC50 in the series on TK− VZV strain (setting [7]) came out at 91.5 µM. Further, in the series on TK+ VZV strain (setting [8]), the EC50 was determined as 56.7 µM. In [2], the half-inhibitory concentration (IC50) was determined as 71 ± 21 µM. Besides, the “Cytotoxicity, Cell Morphology (MCC)” value in the series with HEL cells is given as over 100 μM. Besides, in [4] (HMEC-1, read-out: IC50 HMEC-1), the IC50 amounted to 155 ± 6 µM. In addition, in series [5] (L1210, 48 h), the half-inhibitory concentration (IC50) stood at 68 ± 11 µM. Further, in series [6], the IC50 was 42 ± 21 µM.

Take `CCOP(=O)(COCCn1cc(CN2C(=O)c3cccc4cc([N+](=O)[O-])cc(c34)C2=O)nn1)OCC` [Compound 16g, Diethyl 2-{4-[(5-Nitro-1,3-dioxo-1H-benzo[de]isoquinolin-2(3H)-yl)methyl]-1H-1,2,3-triazol-1-yl}ethoxy-methylphosphonate]: the melting point was in the range of 89 to 90 °C. In addition, the 50% effective concentration (EC50) in the series with TK− VZV strain (setting [7]) was over 100 µM. For the same compound, the EC50 in the series on TK+ VZV strain (setting [8]) was determined as 50.2 µM. For the same compound, the IC50 in [2] worked out at 79 ± 4 µM. Moreover, the “Cytotoxicity, Cell Morphology (MCC)” value in the series on HEL cells is over 100 μM. Also, the half-inhibitory concentration (IC50) in [4] (HMEC-1, read-out: IC50 HMEC-1) was determined as 148 ± 3 µM. In series [5] (L1210, 48 h), the IC50 amounted to 71 ± 1 µM. The concentration for half-maximal inhibition (IC50) in [6] was 76 ± 8 µM.
